Data from BigSolDB 2.1.

With `Cc1c(-c2ccccc2)oc2c(C(=O)O)cccc2c1=O` the solubility (mole fraction) (in DMF, 278.15 K) was 0.0129, the solubility (mole fraction) (in DMF, 283.15 K) was 0.0165 and the solubility (mole fraction) (in DMF, 288.15 K) was 0.0213. It also gave a solubility (mole fraction) (in DMF, 293.15 K) of 0.0259, a solubility (mole fraction) (in DMF, 298.15 K) of 0.0321 and a solubility (mole fraction) (in DMF, 303.15 K) of 0.0399. It also gave a solubility (mole fraction) (in DMF, 308.15 K) of 0.0485, a solubility (mole fraction) (in DMF, 313.15 K) of 0.0587 and a solubility (mole fraction) (in DMF, 318.15 K) of 0.072. The solubility (mole fraction) (in DMF, 323.15 K) was 0.0889, the solubility (mole fraction) (in THF, 278.15 K) was 0.013 and the solubility (mole fraction) (in THF, 283.15 K) was 0.0154. For the same compound, the solubility (mole fraction) (in THF, 288.15 K) was 0.0183, the solubility (mole fraction) (in THF, 293.15 K) was 0.0217 and the solubility (mole fraction) (in THF, 298.15 K) was 0.0261. It also gave a solubility (mole fraction) (in THF, 303.15 K) of 0.0313, a solubility (mole fraction) (in THF, 308.15 K) of 0.0371 and a solubility (mole fraction) (in THF, 313.15 K) of 0.0443. For the same compound, the solubility (mole fraction) (in THF, 318.15 K) was 0.0517, the solubility (mole fraction) (in THF, 323.15 K) was 0.061 and the solubility (mole fraction) (in acetone, 278.15 K) was 0.0019. It also gave a solubility (mole fraction) (in acetone, 283.15 K) of 0.00219, a solubility (mole fraction) (in acetone, 288.15 K) of 0.00259 and a solubility (mole fraction) (in acetone, 293.15 K) of 0.00301. The solubility (mole fraction) (in acetone, 298.15 K) was 0.0034, the solubility (mole fraction) (in acetone, 303.15 K) was 0.00381 and the solubility (mole fraction) (in acetone, 308.15 K) was 0.00438. The solubility (mole fraction) (in acetone, 313.15 K) was 0.00489, the solubility (mole fraction) (in acetone, 318.15 K) was 0.00546 and the solubility (mole fraction) (in acetone, 323.15 K) was 0.00617. It also gave a solubility (mole fraction) (in acetonitrile, 278.15 K) of 0.000211, a solubility (mole fraction) (in acetonitrile, 283.15 K) of 0.000247 and a solubility (mole fraction) (in acetonitrile, 288.15 K) of 0.00031. The solubility (mole fraction) (in acetonitrile, 293.15 K) was 0.00037, the solubility (mole fraction) (in acetonitrile, 298.15 K) was 0.000458 and the solubility (mole fraction) (in acetonitrile, 303.15 K) was 0.000542. The solubility (mole fraction) (in acetonitrile, 308.15 K) was 0.000641, the solubility (mole fraction) (in acetonitrile, 313.15 K) was 0.000768 and the solubility (mole fraction) (in acetonitrile, 318.15 K) was 0.000893. For the same compound, the solubility (mole fraction) (in acetonitrile, 323.15 K) was 0.00103, the solubility (mole fraction) (in ethanol, 278.15 K) was 0.00108 and the solubility (mole fraction) (in ethanol, 283.15 K) was 0.00128. It also gave a solubility (mole fraction) (in ethanol, 288.15 K) of 0.00153, a solubility (mole fraction) (in ethanol, 293.15 K) of 0.00181 and a solubility (mole fraction) (in ethanol, 298.15 K) of 0.00216. For the same compound, the solubility (mole fraction) (in ethanol, 303.15 K) was 0.00258, the solubility (mole fraction) (in ethanol, 308.15 K) was 0.00304 and the solubility (mole fraction) (in ethanol, 313.15 K) was 0.00363. It also gave a solubility (mole fraction) (in ethanol, 318.15 K) of 0.00431, a solubility (mole fraction) (in ethanol, 323.15 K) of 0.00512 and a solubility (mole fraction) (in ethyl acetate, 278.15 K) of 0.00088. The solubility (mole fraction) (in ethyl acetate, 283.15 K) was 0.00114, the solubility (mole fraction) (in ethyl acetate, 288.15 K) was 0.00141 and the solubility (mole fraction) (in ethyl acetate, 293.15 K) was 0.00178. The solubility (mole fraction) (in ethyl acetate, 298.15 K) was 0.00221, the solubility (mole fraction) (in ethyl acetate, 303.15 K) was 0.00272 and the solubility (mole fraction) (in ethyl acetate, 308.15 K) was 0.00341. For the same compound, the solubility (mole fraction) (in ethyl acetate, 313.15 K) was 0.00416, the solubility (mole fraction) (in ethyl acetate, 318.15 K) was 0.00494 and the solubility (mole fraction) (in ethyl acetate, 323.15 K) was 0.00594. The solubility (mole fraction) (in isobutanol, 278.15 K) was 0.000942, the solubility (mole fraction) (in isobutanol, 283.15 K) was 0.00118 and the solubility (mole fraction) (in isobutanol, 288.15 K) was 0.00143. It also gave a solubility (mole fraction) (in isobutanol, 293.15 K) of 0.00175, a solubility (mole fraction) (in isobutanol, 298.15 K) of 0.00214 and a solubility (mole fraction) (in isobutanol, 303.15 K) of 0.00261. It also gave a solubility (mole fraction) (in isobutanol, 308.15 K) of 0.00313, a solubility (mole fraction) (in isobutanol, 313.15 K) of 0.00376 and a solubility (mole fraction) (in isobutanol, 318.15 K) of 0.00458. It also gave a solubility (mole fraction) (in isobutanol, 323.15 K) of 0.0056, a solubility (mole fraction) (in methanol, 278.15 K) of 0.000344 and a solubility (mole fraction) (in methanol, 283.15 K) of 0.000449. For the same compound, the solubility (mole fraction) (in methanol, 288.15 K) was 0.000587, the solubility (mole fraction) (in methanol, 293.15 K) was 0.000767 and the solubility (mole fraction) (in methanol, 298.15 K) was 0.00102. It also gave a solubility (mole fraction) (in methanol, 303.15 K) of 0.00136, a solubility (mole fraction) (in methanol, 308.15 K) of 0.00181 and a solubility (mole fraction) (in methanol, 313.15 K) of 0.00242. It also gave a solubility (mole fraction) (in methanol, 318.15 K) of 0.00316, a solubility (mole fraction) (in methanol, 323.15 K) of 0.00419 and a solubility (mole fraction) (in methyl acetate, 278.15 K) of 0.000929. It also gave a solubility (mole fraction) (in methyl acetate, 283.15 K) of 0.00112, a solubility (mole fraction) (in methyl acetate, 288.15 K) of 0.00145 and a solubility (mole fraction) (in methyl acetate, 293.15 K) of 0.0019. It also gave a solubility (mole fraction) (in methyl acetate, 298.15 K) of 0.00245, a solubility (mole fraction) (in methyl acetate, 303.15 K) of 0.00302 and a solubility (mole fraction) (in methyl acetate, 308.15 K) of 0.00382. It also gave a solubility (mole fraction) (in methyl acetate, 313.15 K) of 0.00473, a solubility (mole fraction) (in methyl acetate, 318.15 K) of 0.0057 and a solubility (mole fraction) (in methyl acetate, 323.15 K) of 0.00673. It also gave a solubility (mole fraction) (in n-butyl acetate, 278.15 K) of 0.000947, a solubility (mole fraction) (in n-butyl acetate, 283.15 K) of 0.0011 and a solubility (mole fraction) (in n-butyl acetate, 288.15 K) of 0.00125. The solubility (mole fraction) (in n-butyl acetate, 293.15 K) was 0.00141, the solubility (mole fraction) (in n-butyl acetate, 298.15 K) was 0.00158 and the solubility (mole fraction) (in n-butyl acetate, 303.15 K) was 0.00178. It also gave a solubility (mole fraction) (in n-butyl acetate, 308.15 K) of 0.00197, a solubility (mole fraction) (in n-butyl acetate, 313.15 K) of 0.00221 and a solubility (mole fraction) (in n-butyl acetate, 318.15 K) of 0.00242. The solubility (mole fraction) (in n-butyl acetate, 323.15 K) was 0.00268.
